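Step 1: Grow cells in 96-well plates. Step 2: Expose to compound for 48 hours at 5 concentrations. Step 3: Interpolate endpoints linearly; if unreached, use highest concentration. GI50 is the concentration that inhibits growth by half.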 Calls of active or inactive are those of the source. Cut-off read from the data, not from the text of the source: active = GI50 up to about 1.1 µM and inactive = higher.
What was measured:
Assay in all cases: NCI tumour cell line growth inhibition, 48 h
SK-MEL-2 = tested on: SK-MEL-2
M14 = tested on: M14
LOX IMVI = tested on: LOX IMVI
OVCAR-5 = tested on: OVCAR-5
UO-31 = tested on: UO-31
HT-29 = tested on: HT-29
MOLT-4 = tested on: MOLT-4
SNB-75 = tested on: SNB-75
ACHN = tested on: ACHN
OVCAR-8 = tested on: OVCAR-8
HCT-116 = tested on: HCT-116
KM12 = tested on: KM12
SN12C = tested on: SN12C
NCI-H522 = tested on: NCI-H522
COLO 205 = tested on: COLO 205
K562 = tested on: K562
OVCAR-3 = tested on: OVCAR-3
SF-268 = tested on: SF-268
SF-295 = tested on: SF-295
U-251 = tested on: U-251

Measured: GI50

CC(C)(Br)C1(O)CCCN1C(=O)c1ccccc1 (stereo not given)
inactive: SK-MEL-2 > 100 µM | M14 > 100 µM | LOX IMVI > 100 µM | OVCAR-5 > 100 µM | UO-31 > 100 µM | HT-29 > 100 µM | MOLT-4 > 100 µM | SNB-75 97.5 µM | ACHN > 100 µM | OVCAR-8 > 100 µM | HCT-116 > 100 µM | KM12 > 100 µM | SN12C > 100 µM | NCI-H522 > 100 µM | COLO 205 > 100 µM | K562 33 µM | OVCAR-3 > 100 µM | SF-268 > 100 µM | SF-295 25.1 µM | U-251 > 100 µM

O=C(Nc1cccc2ccccc12)Nn1cnnc1
inactive: SK-MEL-2 > 100 µM | M14 > 100 µM | LOX IMVI > 100 µM | OVCAR-5 > 100 µM | UO-31 > 100 µM | HT-29 > 100 µM | MOLT-4 > 100 µM | SNB-75 27.6 µM | ACHN > 100 µM | OVCAR-8 19.1 µM | HCT-116 > 100 µM | KM12 > 100 µM | SN12C > 100 µM | NCI-H522 > 100 µM | COLO 205 > 100 µM | K562 > 100 µM | OVCAR-3 > 100 µM | SF-268 > 100 µM | SF-295 > 100 µM | U-251 > 100 µM

COC[C@@H](Cc1ccc(OC)c(OC)c1)[C@@H](COC)Cc1ccc(OC)c(OC)c1
inactive: SK-MEL-2 > 100 µM | M14 > 100 µM | LOX IMVI > 100 µM | OVCAR-5 > 100 µM | UO-31 > 100 µM | HT-29 > 100 µM | MOLT-4 60.3 µM | SNB-75 > 100 µM | ACHN > 100 µM | OVCAR-8 > 100 µM | HCT-116 94 µM | KM12 > 100 µM | SN12C > 100 µM | NCI-H522 64.1 µM | COLO 205 > 100 µM | K562 > 100 µM | OVCAR-3 > 100 µM | SF-268 > 100 µM | SF-295 > 100 µM | U-251 > 100 µM

O=C(Nc1cccc(C(=O)NCCCO)c1)/C(=C/c1ccccc1)NC(=O)c1ccccc1
inactive: SK-MEL-2 > 100 µM | M14 > 100 µM | LOX IMVI > 100 µM | OVCAR-5 > 100 µM | UO-31 > 100 µM | HT-29 > 100 µM | MOLT-4 84.1 µM | SNB-75 > 100 µM | ACHN > 100 µM | OVCAR-8 > 100 µM | HCT-116 > 100 µM | KM12 > 100 µM | SN12C > 100 µM | NCI-H522 > 100 µM | COLO 205 > 100 µM | K562 > 100 µM | OVCAR-3 > 100 µM | SF-268 > 100 µM | SF-295 > 100 µM | U-251 > 100 µM

Brc1cccc(Nc2ncnc3sc4c(c23)CCC(Nc2cccc(Br)c2)C4)c1 (stereo not given)
inactive: SK-MEL-2 > 100 µM | M14 > 100 µM | LOX IMVI > 100 µM | OVCAR-5 > 100 µM | UO-31 > 100 µM | HT-29 > 100 µM | MOLT-4 > 100 µM | SNB-75 65.9 µM | ACHN > 100 µM | OVCAR-8 > 100 µM | HCT-116 > 100 µM | KM12 > 100 µM | SN12C > 100 µM | NCI-H522 > 100 µM | COLO 205 > 100 µM | K562 > 100 µM | OVCAR-3 > 100 µM | SF-268 > 100 µM | SF-295 > 100 µM | U-251 > 100 µM

Nc1ncc2c(n1)-c1ccccc1OC2N1CCCC1 (stereo not given)
inactive: SK-MEL-2 > 100 µM | M14 > 100 µM | LOX IMVI > 100 µM | OVCAR-5 > 100 µM | UO-31 92 µM | HT-29 > 100 µM | MOLT-4 > 100 µM | SNB-75 29 µM | ACHN > 100 µM | OVCAR-8 > 100 µM | HCT-116 > 100 µM | KM12 > 100 µM | SN12C > 100 µM | NCI-H522 > 100 µM | COLO 205 > 100 µM | K562 > 100 µM | OVCAR-3 > 100 µM | SF-268 > 100 µM | SF-295 > 100 µM | U-251 > 100 µM

Source: ChEMBL document CHEMBL1201862, “PubChem BioAssay data set” (2004)
